# Data reported in PubChem BioAssay AID248 (DTP/NCI, 2004).
# Values joined by “and” are separate entries in the source; they are usually repeats but may differ in a detail not shown here. Equal values may be shown once. Inconclusive results and toxic doses are left out.
# System: L1210 leukemia ip in BDF1 mice, survival T/C
# Assay: NCI In Vivo Anticancer Drug Screen. Data for tumor model L1210 Leukemia (intraperitoneal) in B6D2F1 (BDF1) mice
# Details: endpoint: mean survival time, higher = longer survival
# Method in brief: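 Value reflects the ratio of survival in compound-treated mice to survival in vehicle-treated controls, with both groups carrying the same transplanted tumor.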
# [1] = dose: 100.0 mg/kg/injection, schedule: Q01DX001 (ip), vehicle: carboxymethylcellulose (CMC)
# [2] = dose: 200.0 mg/kg/injection, schedule: Q01DX001 (ip), vehicle: carboxymethylcellulose (CMC)
# [3] = dose: 400.0 mg/kg/injection, schedule: Q01DX001 (ip), vehicle: carboxymethylcellulose (CMC)
# [4] = dose: 25.0 mg/kg/injection, schedule: Q01DX009 (ip), vehicle: Klucel (hydroxypropylcellulose) (HPC)
# [5] = dose: 100.0 mg/kg/injection, schedule: Q01DX009 (ip), vehicle: Klucel (hydroxypropylcellulose) (HPC)
# [6] = dose: 100.0 mg/kg/injection, schedule: Q01DX001 (ip), vehicle: saline
# [7] = dose: 200.0 mg/kg/injection, schedule: Q01DX001 (ip), vehicle: saline
# [8] = dose: 50.0 mg/kg/injection, schedule: Q01DX009 (ip), vehicle: saline
# [9] = dose: 100.0 mg/kg/injection, schedule: Q01DX009 (ip), vehicle: saline with Tween-80
# [10] = dose: 100.0 mg/kg/injection, schedule: Q04DX002 (ip), vehicle: saline with Tween-80
# [11] = dose: 100.0 mg/kg/injection, schedule: Q04DX003 (ip), vehicle: saline
# [12] = dose: 200.0 mg/kg/injection, schedule: Q01DX009 (ip), vehicle: saline with Tween-80
# [13] = dose: 200.0 mg/kg/injection, schedule: Q04DX002 (ip), vehicle: saline with Tween-80
# [14] = dose: 200.0 mg/kg/injection, schedule: Q04DX003 (ip), vehicle: saline
# [15] = dose: 400.0 mg/kg/injection, schedule: Q01DX009 (ip), vehicle: saline with Tween-80
# [16] = dose: 400.0 mg/kg/injection, schedule: Q04DX002 (ip), vehicle: saline with Tween-80
# [17] = dose: 400.0 mg/kg/injection, schedule: Q04DX003 (ip), vehicle: saline
# [18] = dose: 100.0 mg/kg/injection, schedule: Q01DX009 (ip), vehicle: saline
# [19] = dose: 100.0 mg/kg/injection, schedule: Q04DX003 (ip), vehicle: saline with Tween-80
# [20] = dose: 200.0 mg/kg/injection, schedule: Q04DX003 (ip), vehicle: saline with Tween-80
structure (smiles),measurement,setting,value
O=S(=O)(F)c1cc(Cl)ccc1C[P+](c1ccccc1)(c1ccccc1)c1ccccc1,T/C,"dose: 10.0 mg/kg/injection, schedule: Q04DX003 (ip), vehicle: saline",97 % of control
same,T/C,"dose: 20.0 mg/kg/injection, schedule: Q04DX003 (ip), vehicle: saline",89 % of control
O=C1OC(=O)C23CC=CCC12CC=CC3 (stereo not given),T/C,"dose: 50.0 mg/kg/injection, schedule: Q01DX001 (ip), vehicle: carboxymethylcellulose (CMC)",104 % of control
same,T/C,[1],113 % of control
same,T/C,[2],102 % of control
same,T/C,[3],104 % of control
COc1cc(/C=C/[N+](=O)[O-])ccc1O,T/C,[4],98 % of control
same,T/C,"dose: 50.0 mg/kg/injection, schedule: Q01DX009 (ip), vehicle: Klucel (hydroxypropylcellulose) (HPC)",98 % of control
same,T/C,[5],102 % of control and 103 % of control
C[N+]([O-])(CCC#N)CC(=O)O (stereo not given),T/C,[6],97 % of control
same,T/C,[7],101 % of control
c1nc(SC2=NCCN2)c2[nH]cnc2n1,T/C,"dose: 2.62 mg/kg/injection, schedule: Q01DX Z (ip), vehicle: saline",116 % of control
same,T/C,"dose: 5.0 mg/kg/injection, schedule: Q01DX001 (ip), vehicle: saline",100 % of control
same,T/C,"dose: 5.25 mg/kg/injection, schedule: Q01DX Z (ip), vehicle: saline",118 % of control
same,T/C,"dose: 5.25 mg/kg/injection, schedule: Q01DX Z (oral), vehicle: saline",114 % of control
same,T/C,"dose: 10.0 mg/kg/injection, schedule: Q01DX001 (ip), vehicle: saline",105 % of control
same,T/C,"dose: 10.5 mg/kg/injection, schedule: Q01DX Z (oral), vehicle: saline",114 % of control
same,T/C,"dose: 12.5 mg/kg/injection, schedule: Q01DX009 (ip), vehicle: saline",115 % of control
same,T/C,"dose: 12.5 mg/kg/injection, schedule: Q04DX003 (ip), vehicle: saline",109 % of control
same,T/C,"dose: 20.0 mg/kg/injection, schedule: Q01DX001 (ip), vehicle: saline",103 % of control
same,T/C,"dose: 22.0 mg/kg/injection, schedule: Q04DX003 (ip), vehicle: saline",106 % of control
same,T/C,"dose: 25.0 mg/kg/injection, schedule: Q01DX009 (ip), vehicle: saline",118 % of control
same,T/C,"dose: 25.0 mg/kg/injection, schedule: Q04DX003 (ip), vehicle: saline",117 % of control
same,T/C,"dose: 33.0 mg/kg/injection, schedule: Q04DX003 (ip), vehicle: saline",114 % of control and 116 % of control
same,T/C,"dose: 40.0 mg/kg/injection, schedule: Q01DX001 (ip), vehicle: saline",108 % of control
same,T/C,"dose: 42.0 mg/kg/injection, schedule: Q01DX Z (ip), vehicle: saline",156 % of control
same,T/C,[8],150 % of control and 178 % of control
same,T/C,"dose: 50.0 mg/kg/injection, schedule: Q04DX003 (ip), vehicle: saline",115 % of control and 118 % of control
same,T/C,"dose: 168.0 mg/kg/injection, schedule: Q01DX Z (oral), vehicle: saline",87 % of control
Cc1ccc(Cl)cc1NC(=O)Nc1ccccc1C(N)=O,T/C,"dose: 100.0 mg/kg/injection, schedule: Q01DX001 (ip), vehicle: saline with Tween-80",98 % of control
same,T/C,[9],100 % of control and 110 % of control
same,T/C,[10],93 % of control and 102 % of control
same,T/C,[11],97 % of control
same,T/C,"dose: 200.0 mg/kg/injection, schedule: Q01DX001 (ip), vehicle: saline with Tween-80",92 % of control
same,T/C,[12],109 % of control and 120 % of control
same,T/C,[13],93 % of control and 98 % of control
same,T/C,[14],95 % of control
same,T/C,"dose: 400.0 mg/kg/injection, schedule: Q01DX001 (ip), vehicle: saline with Tween-80",101 % of control
same,T/C,[15],105 % of control and 89 % of control
same,T/C,[16],95 % of control and 102 % of control
same,T/C,[17],103 % of control
O=C1c2cc([N+](=O)[O-])ccc2-c2c1cccc2[N+](=O)[O-],T/C,"dose: 18.75 mg/kg/injection, schedule: Q01DX001 (ip), vehicle: Klucel (hydroxypropylcellulose) (HPC)",96 % of control
same,T/C,"dose: 37.5 mg/kg/injection, schedule: Q01DX001 (ip), vehicle: Klucel (hydroxypropylcellulose) (HPC)",91 % of control
same,T/C,"dose: 75.0 mg/kg/injection, schedule: Q01DX001 (ip), vehicle: Klucel (hydroxypropylcellulose) (HPC)",96 % of control
same,T/C,"dose: 150.0 mg/kg/injection, schedule: Q01DX001 (ip), vehicle: Klucel (hydroxypropylcellulose) (HPC)",98 % of control
same,T/C,"dose: 300.0 mg/kg/injection, schedule: Q01DX001 (ip), vehicle: Klucel (hydroxypropylcellulose) (HPC)",87 % of control
O=C(c1ccccc1[N+](=O)[O-])N(O)c1ccc(/C=C/c2ccccc2)cc1,T/C,[1],93 % of control
same,T/C,[2],95 % of control
same,T/C,[3],95 % of control
CCOC(=O)c1ccc2cc(C(=O)c3ccccc3)ccc2n1,T/C,[8],94 % of control
same,T/C,[18],100 % of control
same,T/C,[11],91 % of control
same,T/C,[14],91 % of control
same,T/C,[17],93 % of control
NC(=O)NC(=O)Nc1ccccc1,T/C,"dose: 100.0 mg/kg/injection, schedule: Q04DX002 (ip), vehicle: saline",96 % of control
same,T/C,"dose: 200.0 mg/kg/injection, schedule: Q04DX002 (ip), vehicle: saline",96 % of control
same,T/C,"dose: 400.0 mg/kg/injection, schedule: Q04DX002 (ip), vehicle: saline",111 % of control
CC(C)C12NC(=O)NC(=O)N1CCS2 (stereo not given),T/C,"dose: 50.0 mg/kg/injection, schedule: Q01DX001 (ip), vehicle: saline",93 % of control
same,T/C,[6],96 % of control
same,T/C,[7],100 % of control
same,T/C,"dose: 400.0 mg/kg/injection, schedule: Q01DX001 (ip), vehicle: saline",100 % of control
CCCCn1cccc1,T/C,[19],106 % of control
same,T/C,[20],95 % of control
Cc1cc2nc(N)sc2cc1C,T/C,[4],101 % of control
same,T/C,"dose: 50.0 mg/kg/injection, schedule: Q04DX003 (ip), vehicle: Klucel (hydroxypropylcellulose) (HPC)",100 % of control
same,T/C,"dose: 100.0 mg/kg/injection, schedule: Q04DX003 (ip), vehicle: Klucel (hydroxypropylcellulose) (HPC)",89 % of control
c1ccc(N2CCOCC2)cc1,T/C,"dose: 12.5 mg/kg/injection, schedule: Q01DX009 (ip), vehicle: saline with Tween-80",93 % of control
same,T/C,"dose: 25.0 mg/kg/injection, schedule: Q01DX009 (ip), vehicle: saline with Tween-80",100 % of control
same,T/C,"dose: 50.0 mg/kg/injection, schedule: Q01DX009 (ip), vehicle: saline with Tween-80",89 % of control
same,T/C,[5],95 % of control
same,T/C,[9],92 % of control
same,T/C,"dose: 200.0 mg/kg/injection, schedule: Q01DX009 (ip), vehicle: Klucel (hydroxypropylcellulose) (HPC)",93 % of control
same,T/C,[12],92 % of control
same,T/C,"dose: 400.0 mg/kg/injection, schedule: Q01DX009 (ip), vehicle: Klucel (hydroxypropylcellulose) (HPC)",101 % of control
CN(Cc1cccc(Cl)c1)C(=O)Nc1ccccc1Cl,T/C,"dose: 100.0 mg/kg/injection, schedule: Q04DX002 (ip), vehicle: Klucel (hydroxypropylcellulose) (HPC)",104 % of control
same,T/C,"dose: 200.0 mg/kg/injection, schedule: Q04DX002 (ip), vehicle: Klucel (hydroxypropylcellulose) (HPC)",104 % of control
same,T/C,"dose: 400.0 mg/kg/injection, schedule: Q04DX002 (ip), vehicle: Klucel (hydroxypropylcellulose) (HPC)",104 % of control
O=C(CCC(O)c1ccccc1)c1ccccc1 (stereo not given),T/C,[9],94 % of control
same,T/C,[19],110 % of control
same,T/C,[12],94 % of control
same,T/C,[20],106 % of control
same,T/C,[15],97 % of control
same,T/C,"dose: 400.0 mg/kg/injection, schedule: Q04DX003 (ip), vehicle: saline with Tween-80",97 % of control
[Cl][Sn]([c]1cccc2ccccc12)([c]1cccc2ccccc12)[c]1cccc2ccccc12,T/C,[10],98 % of control
same,T/C,[13],102 % of control
same,T/C,[16],87 % of control
Nc1ccc(OCCNS(=O)(=O)c2cccc(S(=O)(=O)F)c2)c(Cl)c1,T/C,[8],97 % of control
same,T/C,[18],102 % of control
same,T/C,[11],97 % of control
same,T/C,[14],97 % of control
